1 compound from patent publication US9386787B2, “Preparations for oral consumption” (Symrise AG, priority 2012, dated 2016) can be followed below.

SMILES strings stand for the structures. Marks after values point to notes of the source that are not given here.

A short description of the assay: multiple time-intensity profiling (mTIP) of astringency, trained panel. The assay is classed as in vivo. The conditions noted are these: 750 mg/kg EGCG + 125 mg/kg ascorbic acid; for Reduction (%) of astringency: 300 μg/kg Frescolat ML vs without; for Astringency with Frescolat ML: 300 μg/kg Frescolat ML. Here is the method: In order to evaluate different attributes of a sample simultaneously over a particular period of time, the method of so-called “multiple time-intensity profiling” (mITP) was used. This descriptive method combines the advantages of the “dual-attribute time-intensity” (DATI) method, in which the intensities of two descriptors can be plotted on a two-dimensional plane, and the “time-intensity profiling” (TIP) method, in which more than two descriptors are evaluated in succession over time. In each mTIP test, trained panellists (n=15) are asked to take 2 mouthfuls (each 5 ml) of the sample to be evaluated, to wet the entire oral cavity therewith, and then to spit the sample out again. […] A parallel evaluation of more than two attributes is thus possible. The intensities are read after the first 10 seconds and then every 20 seconds over a period of 70 seconds. The data produced are analysed by means of Compusense® five and represented graphically as a time-intensity curve. In order to show the astringency-masking effect of L-lactic acid L-menthyl ester (Frescolat ML), the panel was trained inter alia with an aqueous test solution comprising 750 mg/kg of epigallocatechin gallate and 125 mg/kg of ascorbic acid. The panellists were asked to evaluate the test solution in respect of its bitterness and astringency using the above-described method. In a subsequent test, the two descriptors were evaluated on the one hand for the above-described test solution and on the other hand for the test solution plus 300 μg/kg of Frescolat ML. The results of both time-intensity curves were evaluated statistically and compared with one another in order to determine an astringency-masking effect of Frescolat® ML. For the significance calculation, the Student t-test, duplicated with paired random samples, was used.

`CC(C)[C@@H]1CC[C@@H](C)C[C@H]1OC(=O)[C@H](C)O` [Frescolat ML, L-lactic acid L-menthyl ester]: the “Reduction (%) of astringency” value reads like this: (time 0 sec) −0.49%; (time 10 sec) −14.29%; (time 30 sec, significant (p < 0.1)) −20.58* %; (time 50 sec, significant (p < 0.1)) −22.24* %; (time 70 sec) −17.82%. In addition, the “Astringency with Frescolat ML” value was 4.81 (time 0 sec); 4.11 (time 10 sec); 3.38 (time 30 sec); 2.58 (time 50 sec); 2.04 (time 70 sec).
